This is an account of results in patent US5472949A, “N^4 -(substituted-oxycarbonyl)-5'-deoxy-5-fluorocytidine compounds, compositions and methods of using same” (Hoffmann-La Roche Inc., priority 1992, dated 1995).

A word on the LD50: it is the dose expected to kill half of the subjects tested.

In one series the test system is monkey liver acylamidase. The experiment in a line: Susceptibility to monkey liver acylamidase (crude liver extract, 5'-DFCR formed by HPLC). Format: in vitro ADME. As to conditions: tetrahydrouridine 0.4 mM, 37° C., 60 min. The protocol:
(§1) The N^4 -(substituted-oxycarbonyl)-5'-DFCRs of the invention were incubated with crude extracts of monkey and human liver in the presence of an inhibitor of cytidine deaminase, tetrahydrouridine (0.4 mM) at 37° C. for 60 min. Thereafter, the product 5'-DFCR was separated by HPLC and the enzyme susceptibility was calculated from the amount of the product.

The subject of the next series is human liver acylamidase. The series can be described thus: Susceptibility to human liver acylamidase (crude liver extract, 5'-DFCR formed by HPLC). The following applies: tetrahydrouridine 0.4 mM, 37° C., 60 min. It counts as in vitro ADME. The protocol:
as §1

Series [1] in a line: Pharmacokinetic profiles in monkeys (plasma 5'-DFUR after oral administration). As to conditions: cynomolgous monkeys, metabolite 5'-DFUR in plasma. It counts as in vivo. The procedure:
The compounds of formula (I) were orally administered into groups of 2 to 5 cynomolgous monkeys (3-4 kg). At various times after the administration, plasma was taken for determination of blood concentrations of intact molecules and their active metabolite 5'-DFUR. Metabolites in the plasma were separated by HPLC and their concentrations were calculated.

Series [2] has as its system CXF280 Human Colon Carcinoma. The experiment in a line: Antitumor testing against human colon cancer xenograft CXF280. Format: in vivo, BALB/c nu/nu mice. Set-up: key to Fecal observation: N: normal feces; L: loose passage. The procedure:
CXF280 tumor (about 2×2 mm piece) was implanted subcutaneously into BALB/c nu/nu mice (21-22 g) on day 0. When tumor volume became 100 mm^3 on day around 14, the compounds of the invention were orally administered daily for 3 weeks. At one day after the last treatment, tumor volume was calculated.
The percent inhibition of tumor growth given in Table 3 above was calculated from the formula:
% Inhibition ={1-(T-V0)/(C-V0)}×100
V0 =volume of tumor before treatment was started, T=volume of the tumors from the treated group, C=volume of the tumor from the control group.
(A xenograft is tissue or cells of one species grown in another, often human tumour cells in immunodeficient mice.)

Another series has as its system colon 26 carcinoma. The experiment in a line: Antitumor and anticachexia activity against mouse colon 26 carcinoma. It counts as in vivo, Mice (CDF1). As to conditions: for Serum IAP: IAP = immunosuppressive acidic protein. The protocol: Antitumor activity of a representative compound (Example 13), of the present invention, was measured as follows. Mice (CDF1) were subcutaneously inoculated with colon 26 carcinoma (10^6 cells) on day 0. The compound was administered daily for 7 times from day 21 when the animals became cachectic. One day after the last treatment, tumor weight gain, carcass weight gain, adipose tissue weight, concentrations of glucose and the acute phase reactant IAP (immunosuppressive acidic protein) in the serum were measured.

The nature of series [3]: Toxicity (LD50), oral administration daily for 21 days in mice. As to conditions: mouse, in vivo. The procedure:
The toxicity (LD50) of the representative compounds (Example 13,14, and 17) of the present invention was examined by oral administration daily for 21 days in mice. The representative LD50 values obtained from the experiments were more than 500 mg/kg/day.

Structures are written as SMILES. Read-outs that look alike come from different tables or passages of the source.

Consider `CCCCCCOC(=O)Nc1nc(=O)n([C@@H]2O[C@H](C)[C@@H](O)[C@H]2O)cc1F` [Example 13, 5'-deoxy-5-fluoro-N^4-(hexyloxycarbonyl)cytidine], for which the “Acylamidase activity, Monkey Liver” value in the series with monkey liver acylamidase is reported as 47 nmol/mg protein/hr. Further, in the series on human liver acylamidase, the “Acylamidase activity, Human Liver” value is recorded as 220 nmol/mg protein/hr. In addition, in series [1], the “Plasma 5'-DFUR AUC” value was 1960 ng·h/mL. In addition, in series [2] (Exp. 1, 1.5 mmol/kg/day x 21, oral), the Fecal observation result is listed as “N”. For the same compound, in series [2] (Mus musculus, po, Exp. 1, 0.13 mmol/kg/day x 21, oral, read-out: % Growth inhibition), the inhibition in vivo at 0.13 mmol/kg/day came out at 59%. Further, the inhibition in vivo at 0.3 mmol/kg/day in series [2] (Mus musculus, po, Exp. 1, 0.3 mmol/kg/day x 21, oral, read-out: % Growth inhibition) is 66%. Further, in series [2] (Mus musculus, po, Exp. 1, 0.67 mmol/kg/day x 21, oral, read-out: % Growth inhibition), the inhibition in vivo at 0.67 mmol/kg/day was determined as 79%. Further, the inhibition in vivo at 1 mmol/kg/day in series [2] (Mus musculus, po, Exp. 1, 1.0 mmol/kg/day x 21, oral, read-out: % Growth inhibition) came out at 91%. For the same compound, the inhibition in vivo at 1.5 mmol/kg/day in series [2] (Mus musculus, po, Exp. 1, 1.5 mmol/kg/day x 21, oral, read-out: % Growth inhibition) was determined as 94%. In the series on colon 26 carcinoma (0.125 mmol/kg x 7, from day 21), this compound displayed an Adipose tissue wt. of 22 mg, a Carcass wt. change of 1.6 g, a Serum glucose of 118 mg/dL and a Tumor wt. change of 1.24 g. The “Serum IAP” value in the series on colon 26 carcinoma (0.125 mmol/kg x 7, from day 21) is 1195 µg/mL. In the series with colon 26 carcinoma (0.25 mmol/kg x 7, from day 21), the Adipose tissue wt. is 42 mg, the Carcass wt. change is 3.4 g, the Serum glucose is 120 mg/dL and the Tumor wt. change was 0.91 g. Besides, the “Serum IAP” value in the series on colon 26 carcinoma (0.25 mmol/kg x 7, from day 21) stood at 1020 µg/mL. In the series with colon 26 carcinoma (0.5 mmol/kg x 7, from day 21), this compound showed an Adipose tissue wt. of 63 mg, a Carcass wt. change of 4.2 g, a Serum glucose of 147 mg/dL and a Tumor wt. change of 0.79 g. Also, the “Serum IAP” value in the series on colon 26 carcinoma (0.5 mmol/kg x 7, from day 21) worked out at 805 µg/mL. In the series with colon 26 carcinoma (1 mmol/kg x 7, from day 21), the Adipose tissue wt. came out at 85 mg, the Carcass wt. change turned out to be 5.6 g, the Serum glucose amounted to 127 mg/dL and the Tumor wt. change came out at 0.006 g. For the same compound, in the series with colon 26 carcinoma (1 mmol/kg x 7, from day 21), the “Serum IAP” value was 795 µg/mL. Moreover, in the series on colon 26 carcinoma (daily for 7 times from day 21), the “cachexia (in words)” value is recorded as “improved cachexia” and the “tumor growth (in words)” value was “suppressed tumor growth”. The compound further yielded a 50% lethal dose (LD50) at 504 h in series [3] of over 500 mg/kg.
In the case of `CC(C)CCOC(=O)Nc1nc(=O)n([C@@H]2O[C@H](C)[C@@H](O)[C@H]2O)cc1F` [Example 14, 5'-deoxy-5-fluoro-N^4-(isopentyloxycarbonyl)cytidine], in the series with monkey liver acylamidase, the “Acylamidase activity, Monkey Liver” value is given as 32 nmol/mg protein/hr. The “Acylamidase activity, Human Liver” value in the series on human liver acylamidase stood at 74 nmol/mg protein/hr. For the same compound, in series [1], the “Plasma 5'-DFUR AUC” value turned out to be 2400 ng·h/mL. Also, the Fecal observation result in series [2] (Exp. 2, 1.5 mmol/kg/day x 21, oral) was “N”; in series [2] (Exp. 2, 2.25 mmol/kg/day x 21, oral) it was “N”. Besides, the inhibition in vivo at 0.13 mmol/kg/day in series [2] (Mus musculus, po, Exp. 2, 0.13 mmol/kg/day x 21, oral, read-out: % Growth inhibition) turned out to be 68%. For the same compound, the inhibition in vivo at 0.3 mmol/kg/day in series [2] (Mus musculus, po, Exp. 2, 0.3 mmol/kg/day x 21, oral, read-out: % Growth inhibition) amounted to 68%. In addition, the inhibition in vivo at 0.67 mmol/kg/day in series [2] (Mus musculus, po, Exp. 2, 0.67 mmol/kg/day x 21, oral, read-out: % Growth inhibition) stood at 85%. In addition, in series [2] (Mus musculus, po, Exp. 2, 1.5 mmol/kg/day x 21, oral, read-out: % Growth inhibition), the inhibition in vivo at 1.5 mmol/kg/day was determined as 94%. The inhibition in vivo at 2.25 mmol/kg/day in series [2] (Mus musculus, po, Exp. 2, 2.25 mmol/kg/day x 21, oral, read-out: % Growth inhibition) amounted to 100%. The LD50 at 504 h in series [3] was over 500 mg/kg.
As for `C[C@H]1O[C@@H](n2cc(F)c(NC(=O)OCCc3ccccc3)nc2=O)[C@H](O)[C@@H]1O` [Example 17, 5'-deoxy-5-fluoro-N^4-[(2-phenylethoxy)carbonyl]cytidine], the “Acylamidase activity, Monkey Liver” value with monkey liver acylamidase is reported as 22 nmol/mg protein/hr. The “Acylamidase activity, Human Liver” value with human liver acylamidase turned out to be 160 nmol/mg protein/hr. For the same compound, in series [1], the “Plasma 5'-DFUR AUC” value was found to be 2660 ng·h/mL. This compound also yielded an LD50 at 504 h in series [3] of over 500 mg/kg.
